Reference: article PMC9917201, “Enhanced Antibacterial Activity of Substituted Derivatives of NCR169C Peptide” (International Journal of Molecular Sciences, 2023)
Read-outs that look alike come from different tables or passages of the source. Non-standard residues stand in square brackets, D forms with d. Residues, ends and D or L forms follow the SMILES beside them. ξ: configuration not given here. Trp(5-F) = N[C@@H](Cc1c[nH]c2ccc(F)cc12)C(=O)O; ξTrp(5-Me) = Cc1ccc2[nH]cc(CC(N)C(=O)O)c2c1; ξTrp(7-aza) = NC(Cc1c[nH]c2ncccc12)C(=O)O

How the values were obtained:
Type in all cases: cell-based
[1] = system: Acinetobacter baumannii (ATCC 17978)
Description: (§1) The bacterial strains for the antimicrobial assay were obtained from the ATCC (American Type Culture Collection, Manassas, VA, USA) and NCTC (National Collection of Type Cultures, Salisbury, UK). Gram-negative strains were Pseudomonas aeruginosa (ATCC 27853), Escherichia coli (ATCC 8739, ATCC 35218, and ATCC 25922), Salmonella enterica (ATCC 13076), Klebsiella pneumoniae (NCTC 13440), Acinetobacter baumannii (ATCC 17978) and the Gram-positive strains were Enterococcus faecalis (ATCC 29212), Listeria monocytogenes (ATCC 19111), and Staphylococcus aureus (HNCMO112011 and ATCC 25923).
(§2) Determination of antibacterial activity for the peptides was carried out by utilizing a minimum bactericidal concentration (MBC) bioassay. Synthesized peptides were dissolved in sterile water and used from 25 to 0.125 μM in 2-fold dilution series and incubated with ~10^7 log phase bacteria in Potassium-Phosphate Buffer (PPB, pH: 7.4) for three hours as described earlier. After that, 5 μl of each sample was placed on LB agar and the growth of bacteria was monitored after overnight incubation at 37 °C. The lowest concentration of the antimicrobial agents that completely eliminated viable bacteria was considered the minimal bactericidal concentration (MBC).

[2] = system: Escherichia coli (ATCC 8739)
Description: as §1, §2

[3] = system: Salmonella enterica (ATCC 13076)
Description: as §1, §2

[4] = system: Klebsiella pneumoniae (NCTC 13440)
Description: as §1, §2

[5] = system: Enterococcus faecalis (ATCC 29212)
Description: as §1, §2

[6] = system: Pseudomonas aeruginosa (ATCC 27853)
Description: as §1, §2

[7] = system: Listeria monocytogenes (ATCC 19111)
Description: as §1, §2

[8] = system: Staphylococcus aureus (HNCMO112011)
Description: as §1, §2

[9] = system: tested bacteria (ESKAPE pathogens, Listeria monocytogenes, Salmonella enterica)
Description: as §1, §2

[10] = Enterococcus faecalis ATCC 29212, ~10^7 log phase bacteria, 3 h in potassium-phosphate buffer (PPB) pH 7.4, peptide 25 to 0.125 μM 2-fold series, 5 μl on LB agar, overnight 37 °C
[11] = Listeria monocytogenes ATCC 19111, ~10^7 log phase bacteria, 3 h in PPB pH 7.4, peptide 25 to 0.125 μM 2-fold series, plated on LB agar, overnight 37 °C
[12] = Klebsiella pneumoniae NCTC 13440, ~10^7 log phase bacteria, 3 h in PPB pH 7.4, peptide 25 to 0.125 μM 2-fold series, plated on LB agar, overnight 37 °C
[13] = summary over the tested bacterial species, 3 h in PPB pH 7.4

CC[C@H](C)[C@H](NC(=O)[C@H](CCCCN)NC(=O)[C@H](Cc1ccccc1)NC(=O)[C@H](CC(C)C)NC(=O)[C@@H]1CCCN1C(=O)[C@H](CCCCN)NC(=O)[C@H](CCCCN)NC(=O)[C@H](CO)NC(=O)[C@@H](N)CCCCN)C(=O)N[C@@H](Cc1c[nH]c2ccccc12)C(=O)N[C@@H](CCCCN)C(=O)N[C@@H](CO)C(=O)N[C@H](C(=O)N[C@@H](CCC(=O)O)C(=O)N[C@@H](CC(N)=O)C(=O)N[C@H](C(=O)N[C@@H](CO)C(=O)N[C@H](C(=O)N[C@@H](CC(C)C)C(=O)NC(Cc1c[nH]c2ncccc12)C(=O)N[C@@H](Cc1ccc(O)cc1)C(=O)N[C@@H](CCCCN)C(N)=O)C(C)C)C(C)C)C(C)C (some centres unmarked) [NCR169C17–38C12,17/S-20W^7-Aza I] (H-KSKKPLFKIWKSVENVSVL[ξTrp(7-aza)]YK-NH2; N-terminus assumed)
3.1 µM: Minimal bactericidal concentration (MBC) E. c. ([2]; ATCC 8739, 3 h, pH 7.4)
25 µM: Minimal bactericidal concentration (MBC) E. f. [5, 10] | Minimal bactericidal concentration (MBC) L. m. [7, 11]
6.3 µM: Minimal bactericidal concentration (MBC) A. b. ([1]; ATCC 17978, 3 h, pH 7.4) | Minimal bactericidal concentration (MBC) S. e. ([3]; ATCC 13076, 3 h, pH 7.4) | Minimal bactericidal concentration (MBC) K. p. ([4]; NCTC 13440, 3 h, pH 7.4) | Minimal bactericidal concentration (MBC) P. a. ([6]; ATCC 27853, 3 h, pH 7.4) | Minimal bactericidal concentration (MBC) S. a. ([8]; HNCMO112011, 3 h, pH 7.4) | MBC against most or all of the tested bacteria ([9]; 3 h, pH 7.4)

KSKKPLFKIWKSVENVSVLW^5-MeOYK [NCR169C17–38C12,17/S-20W^5-MeO, NCR169C17–38C12,17/S analog with 5-methoxy tryptophan at position 20, forms not separated]
3.1 µM: Minimal bactericidal concentration (MBC) A. b. ([1]; Acinetobacter baumannii ATCC 17978, ~10^7 log phase bacteria, 3 h in PPB pH 7.4, peptide 25 to 0.125 μM 2-fold series, plated on LB agar, overnight 37 °C) | Minimal bactericidal concentration (MBC) E. c. ([2]; Escherichia coli ATCC 8739, ~10^7 log phase bacteria, 3 h in PPB pH 7.4, peptide 25 to 0.125 μM 2-fold series, plated on LB agar, overnight 37 °C) | Minimal bactericidal concentration (MBC) S. e. ([3]; Salmonella enterica ATCC 13076, ~10^7 log phase bacteria, 3 h in PPB pH 7.4, peptide 25 to 0.125 μM 2-fold series, plated on LB agar, overnight 37 °C) | Minimal bactericidal concentration (MBC) K. p. [4, 12] | Minimal bactericidal concentration (MBC) E. f. [5, 10] | Minimal bactericidal concentration (MBC) L. m. [7, 11] | Minimal bactericidal concentration (MBC) S. a. ([8]; Staphylococcus aureus HNCMO112011, ~10^7 log phase bacteria, 3 h in PPB pH 7.4, peptide 25 to 0.125 μM 2-fold series, plated on LB agar, overnight 37 °C) | MBC against most or all of the tested bacteria [9, 13]
0.8 µM: Minimal bactericidal concentration (MBC) P. a. ([6]; Pseudomonas aeruginosa ATCC 27853, ~10^7 log phase bacteria, 3 h in PPB pH 7.4, peptide 25 to 0.125 μM 2-fold series, plated on LB agar, overnight 37 °C)

CC[C@H](C)[C@H](NC(=O)[C@H](CCCCN)NC(=O)[C@H](Cc1ccccc1)NC(=O)[C@H](CC(C)C)NC(=O)[C@@H]1CCCN1C(=O)[C@H](CCCCN)NC(=O)[C@H](CCCCN)NC(=O)[C@H](CO)NC(=O)[C@@H](N)CCCCN)C(=O)N[C@@H](Cc1c[nH]c2ccc(F)cc12)C(=O)N[C@@H](CCCCN)C(=O)N[C@@H](CO)C(=O)N[C@H](C(=O)N[C@@H](CCC(=O)O)C(=O)N[C@@H](CC(N)=O)C(=O)N[C@H](C(=O)N[C@@H](CO)C(=O)N[C@H](C(=O)N[C@@H](CC(C)C)C(=O)N[C@@H](Cc1c[nH]c2ccccc12)C(=O)N[C@@H](Cc1ccc(O)cc1)C(=O)N[C@@H](CCCCN)C(N)=O)C(C)C)C(C)C)C(C)C [NCR169C17–38C12,17/S-10W^5-F-L] (H-KSKKPLFKI[Trp(5-F)]KSVENVSVLWYK-NH2; N-terminus assumed)
1.6 µM: Minimal bactericidal concentration (MBC) A. b. ([1]; ATCC 17978, 3 h, pH 7.4) | Minimal bactericidal concentration (MBC) E. c. ([2]; ATCC 8739, 3 h, pH 7.4) | Minimal bactericidal concentration (MBC) S. e. ([3]; ATCC 13076, 3 h, pH 7.4) | Minimal bactericidal concentration (MBC) E. f. ([5]; ATCC 29212, 3 h, pH 7.4) | Minimal bactericidal concentration (MBC) P. a. ([6]; ATCC 27853, 3 h, pH 7.4) | Minimal bactericidal concentration (MBC) L. m. ([7]; ATCC 19111, 3 h, pH 7.4) | Minimal bactericidal concentration (MBC) S. a. ([8]; HNCMO112011, 3 h, pH 7.4) | MBC against most or all of the tested bacteria ([9]; 3 h, pH 7.4)
3.1 µM: Minimal bactericidal concentration (MBC) K. p. [4, 12] | Minimal bactericidal concentration (MBC) K. p. ([4]; NCTC 13440, 3 h, pH 7.4)
1.6—6.3 µM: MBC against most or all of the tested bacteria [9, 13]

CC[C@H](C)[C@H](NC(=O)[C@H](CCCCN)NC(=O)[C@H](Cc1ccccc1)NC(=O)[C@H](CC(C)C)NC(=O)[C@@H]1CCCN1C(=O)[C@H](CCCCN)NC(=O)[C@H](CCCCN)NC(=O)[C@H](CO)NC(=O)[C@@H](N)CCCCN)C(=O)N[C@@H](Cc1c[nH]c2ccccc12)C(=O)N[C@@H](CCCCN)C(=O)N[C@@H](CO)C(=O)N[C@H](C(=O)N[C@@H](CCC(=O)O)C(=O)N[C@@H](CC(N)=O)C(=O)N[C@H](C(=O)N[C@@H](CO)C(=O)N[C@H](C(=O)N[C@@H](CC(C)C)C(=O)NC(Cc1c[nH]c2ccc(C)cc12)C(=O)N[C@@H](Cc1ccc(O)cc1)C(=O)N[C@@H](CCCCN)C(N)=O)C(C)C)C(C)C)C(C)C (some centres unmarked) [NCR169C17–38C12,17/S-20W^5-Me I] (H-KSKKPLFKIWKSVENVSVL[ξTrp(5-Me)]YK-NH2; N-terminus assumed)
12.5 µM: Minimal bactericidal concentration (MBC) K. p. ([4]; NCTC 13440, 3 h, pH 7.4) | Minimal bactericidal concentration (MBC) E. f. ([5]; ATCC 29212, 3 h, pH 7.4)
6.3 to 12.5 µM: MBC against most or all of the tested bacteria ([9]; 3 h, pH 7.4)
6.3 µM: Minimal bactericidal concentration (MBC) A. b. ([1]; ATCC 17978, 3 h, pH 7.4) | Minimal bactericidal concentration (MBC) E. c. ([2]; ATCC 8739, 3 h, pH 7.4) | Minimal bactericidal concentration (MBC) S. e. ([3]; ATCC 13076, 3 h, pH 7.4) | Minimal bactericidal concentration (MBC) P. a. ([6]; ATCC 27853, 3 h, pH 7.4) | Minimal bactericidal concentration (MBC) L. m. ([7]; ATCC 19111, 3 h, pH 7.4) | Minimal bactericidal concentration (MBC) S. a. ([8]; HNCMO112011, 3 h, pH 7.4)

CC[C@H](C)[C@H](NC(=O)[C@H](CCCCN)NC(=O)[C@H](Cc1ccccc1)NC(=O)[C@H](CC(C)C)NC(=O)[C@@H]1CCCN1C(=O)[C@H](CCCCN)NC(=O)[C@H](CCCCN)NC(=O)[C@H](CO)NC(=O)[C@@H](N)CCCCN)C(=O)N[C@@H](Cc1c[nH]c2ccccc12)C(=O)N[C@@H](CCCCN)C(=O)N[C@@H](CO)C(=O)N[C@H](C(=O)N[C@@H](CCC(=O)O)C(=O)N[C@@H](CC(N)=O)C(=O)N[C@H](C(=O)N[C@@H](CO)C(=O)N[C@H](C(=O)N[C@@H](CC(C)C)C(=O)NC(Cc1c[nH]c2ncccc12)C(=O)N[C@@H](Cc1ccc(O)cc1)C(=O)N[C@@H](CCCCN)C(N)=O)C(C)C)C(C)C)C(C)C (some centres unmarked) [NCR169C17–38C12,17/S-20W^7-Aza II] (H-KSKKPLFKIWKSVENVSVL[ξTrp(7-aza)]YK-NH2; N-terminus assumed)
12.5 µM: Minimal bactericidal concentration (MBC) A. b. ([1]; ATCC 17978, 3 h, pH 7.4) | Minimal bactericidal concentration (MBC) E. c. ([2]; ATCC 8739, 3 h, pH 7.4) | Minimal bactericidal concentration (MBC) S. e. ([3]; ATCC 13076, 3 h, pH 7.4) | Minimal bactericidal concentration (MBC) K. p. ([4]; NCTC 13440, 3 h, pH 7.4) | Minimal bactericidal concentration (MBC) E. f. ([5]; ATCC 29212, 3 h, pH 7.4) | Minimal bactericidal concentration (MBC) P. a. ([6]; ATCC 27853, 3 h, pH 7.4) | Minimal bactericidal concentration (MBC) L. m. ([7]; ATCC 19111, 3 h, pH 7.4) | Minimal bactericidal concentration (MBC) S. a. ([8]; HNCMO112011, 3 h, pH 7.4) | MBC against most or all of the tested bacteria ([9]; 3 h, pH 7.4)

CC[C@H](C)[C@H](NC(=O)[C@H](CCCCN)NC(=O)[C@H](Cc1ccccc1)NC(=O)[C@H](CC(C)C)NC(=O)[C@@H]1CCCN1C(=O)[C@H](CCCCN)NC(=O)[C@H](CCCCN)NC(=O)[C@H](CO)NC(=O)[C@@H](N)CCCCN)C(=O)NC(Cc1c[nH]c2ncccc12)C(=O)N[C@@H](CCCCN)C(=O)N[C@@H](CO)C(=O)N[C@H](C(=O)N[C@@H](CCC(=O)O)C(=O)N[C@@H](CC(N)=O)C(=O)N[C@H](C(=O)N[C@@H](CO)C(=O)N[C@H](C(=O)N[C@@H](CC(C)C)C(=O)N[C@@H](Cc1c[nH]c2ccccc12)C(=O)N[C@@H](Cc1ccc(O)cc1)C(=O)N[C@@H](CCCCN)C(N)=O)C(C)C)C(C)C)C(C)C (some centres unmarked) [NCR169C17–38C12,17/S-10W^7-Aza II] (H-KSKKPLFKI[ξTrp(7-aza)]KSVENVSVLWYK-NH2; N-terminus assumed)
6.3 µM: Minimal bactericidal concentration (MBC) A. b. ([1]; ATCC 17978, 3 h, pH 7.4) | Minimal bactericidal concentration (MBC) K. p. ([4]; NCTC 13440, 3 h, pH 7.4)
3.1 µM: Minimal bactericidal concentration (MBC) E. c. ([2]; ATCC 8739, 3 h, pH 7.4) | Minimal bactericidal concentration (MBC) S. e. ([3]; ATCC 13076, 3 h, pH 7.4) | Minimal bactericidal concentration (MBC) E. f. ([5]; ATCC 29212, 3 h, pH 7.4) | Minimal bactericidal concentration (MBC) P. a. ([6]; ATCC 27853, 3 h, pH 7.4) | Minimal bactericidal concentration (MBC) L. m. ([7]; ATCC 19111, 3 h, pH 7.4) | Minimal bactericidal concentration (MBC) S. a. ([8]; HNCMO112011, 3 h, pH 7.4) | MBC against most or all of the tested bacteria ([9]; 3 h, pH 7.4)
